≈ marks a conversion by molar mass, not a printed value. Where two headings read alike, the source gives them in different places. Blank lines part the entries; values can stand above or below the molecule they belong to.
Tests used:
[1] = target: ADC-7 (Acinetobacter baumannii, UniProt Q6DRA1); test: Steady-state inhibitor kinetics; format: biochemical; conditions: for lower Ki app values compared to those of avibactam and relebactam: ADC-7
[2] = test system: A. baumannii SL04; test: MIC against clinical isolate A. baumannii SL04; format: cell-based
[3] = target: PDC-3 (Pseudomonas aeruginosa, UniProt P24735, T105A); format: biochemical
[4] = test system: KPC-2 (donor) and TEM-1 (recipient); test: Acyl-transfer ESI-MS, KPC-2 donor to TEM-1 recipient; format: biochemical; conditions: equimolar KPC-2:DBO preincubated 1 min, then equimolar TEM-1
[5] = target: OXA-23 (Acinetobacter baumannii, UniProt Q9L4P2); test: Steady-state inhibitor kinetics; format: biochemical, A. baumannii
[6] = test system: Enterobacteriaceae that expressed blaOXA-48 or blaOXA-48 mutants; format: cell-based; conditions: for MIC: Escherichia coli, E. coli Jefferson 17,75 OXA-48, agent alone
[7] = target: OXA-24/40 (Acinetobacter baumannii, UniProt Q8RLA6); test: biochemical; design: species or system A. baumannii
[8] = test system: Escherichia coli DH10B (control); test: MIC, broth microdilution, Escherichia coli DH10B; format: cell-based
[9] = test system: E. coli DH10B expressing a single β-lactamase; format: cell-based; conditions: Escherichia coli, agent alone
[10] = test system: A. baumannii SL46; test: MIC against A. baumannii SL46; format: cell-based; conditions: Acinetobacter baumannii
[11] = test system: A. baumannii NCTC 13303; test: MIC against A. baumannii NCTC 13303; format: cell-based
[12] = target: T1, KPC-2 (Klebsiella pneumoniae, UniProt Q9F663); conditions: at 15 min; cited from earlier work
[13] = test system: TEM-1 (donor) and CTX-M-15 (recipient); conditions: cited from earlier work
[14] = test system: A. baumannii strains (NCTC 13301, NCTC 13303, SL46); test: Murine peritonitis model, summary over the three A. baumannii strains; format: in vivo; conditions: supra-therapeutic doses, 6.25 mg/kg administered as two doses
[15] = test system: A. baumannii NCTC 13301; test: MIC against A. baumannii NCTC 13301; format: cell-based
[16] = target: CMY-2; conditions: cited from earlier work
[17] = target: T1, KPC-2; test: biochemical
[18] = test system: E. coli DH10B with pBR322-catI-blaKPC-2; test: MIC, broth microdilution, isogenic E. coli DH10B with pBR322-catI-blaKPC-2; format: cell-based; conditions: Escherichia coli, β-lactam alone; E. coli DH10B pBR322-catI-blaKPC-2
[19] = test system: A. baumannii AADC; test: MIC, broth microdilution, A. baumannii ΔblaADC parent strain; format: cell-based; conditions: Acinetobacter baumannii
[20] = test system: A. baumannii ΔblaADC with pWH1266 blaOXA-24/40; format: cell-based; conditions: Acinetobacter baumannii, β-lactam alone; A. baumannii ΔblaADC pWH1266 blaOXA-24
[21] = test system: A. baumannii ΔblaADC with pWH1266 blaOXA-23; test: MIC, broth microdilution, isogenic A. baumannii ΔblaADC with pWH1266 blaOXA-23; format: cell-based; conditions: Acinetobacter baumannii, β-lactam alone; A. baumannii ΔblaADC pWH1266 blaOXA-23
[22] = E. coli DH10B pBC SIC (−) KPC-2
[23] = E. coli DHIOB pBC SIC (−) PDC-3
[24] = Acinetobacter baumannii, NCTC13303
[25] = Acinetobacter baumannii, NCTC13301

Molecule: O=C(NNC(=O)[C@@H]1CC[C@@H]2CN1C(=O)N2OS(=O)(=O)O)[C@@H]1CCCNC1 [Compound 2, (2S,5R)-6-Sulfooxy-7-oxo-2-[((3R)-piperidine-3-carbonyl)hydrazinocarbonyl]-1,6-diazabicyclo[3.2.1]octane]
lower Ki app values compared to those of avibactam and relebactam [1]: 3–8 fold
MIC ([2]; Acinetobacter baumannii, SL04): ≥ 512 µg/mL
lower Ki app values compared to those of avibactam and relebactam [3]: 18–25 fold
time required for transfer from KPC-2 to TEM-1 [4]: 5 min
Ki [5]: > 100 µM
MIC [6]: > 16 µg/mL
Ki [7]: > 100 µM

Molecule: O=C(NNC(=O)[C@@H]1CC[C@@H]2CN1C(=O)N2OS(=O)(=O)O)[C@@H]1CCNC1 [Compound 1, (2S,5R)-6-Sulfooxy-7-oxo-2-[((3R)-pyrrolidine-3-carbonyl)hydrazinocarbonyl]-1,6-diazabicyclo[3.2.1]octane]
lower Ki app values compared to those of avibactam and relebactam [1]: 3–8 fold
lower Ki app values compared to those of avibactam and relebactam [3]: 18–25 fold
time required for transfer from KPC-2 to TEM-1 [4]: 5 min
Ki [5]: > 100 µM
MIC [6]: > 16 µg/mL
Ki [7]: > 100 µM

Molecule: CO/N=C(\C(=O)N[C@@H]1C(=O)N2C(C(=O)[O-])=C(C[N+]3(C)CCCC3)CS[C@H]12)c1csc(N)n1 [cefepime]
MIC [8]: < 0.12 µg/mL
MIC [9, 22]: 0.5 µg/mL (≈ 1.04 µM)
MIC ([9]; E. coli DHIOB pBC SIC (−) OXA-48): < 0.12 µg/mL
MIC [9, 23]: < 0.12 µg/mL
MIC [10]: > 512 µg/mL
MIC [11, 24]: 64 µg/mL (≈ 133 µM)

Molecule: O=C(O)[C@H]1/C(=C/CO)O[C@@H]2CC(=O)N21 [clavulanic acid]
turnover number (tn) [12]: 2,500

Molecule: NC(=O)[C@@H]1CC[C@@H]2CN1C(=O)N2OS(=O)(=O)O [avibactam]
time of maximum transfer from TEM-1 to CTX-M-15 [13]: 30 min

Molecule: O.O=C(NC1CCNCC1)[C@@H]1CC[C@@H]2CN1C(=O)N2OS(=O)(=O)O [relebactam]
Ki [5]: > 100 µM
restoration of susceptibility to cefepime and meropenem ([6]; clinical isolates of Enterobacteriaceae expressing blaOXA-48 or mutants): less effective
Ki [7]: > 100 µM

MIC [15, 25]: 1 µg/mL (≈ 1.71 µM)
MIC [11, 24]: 1 µg/mL (≈ 1.71 µM)
Molecule: CN(C)c1cc(NC(=O)CNC(C)(C)C)c(O)c2c1C[C@H]1C[C@H]3[C@H](N(C)C)C(O)=C(C(N)=O)C(=O)[C@@]3(O)C(O)=C1C2=O [tigecycline]
protection of infected mice [14]: failed to protect infected mice

Molecule: C[C@]1(Cn2ccnn2)[C@H](C(=O)O)N2C(=O)C[C@H]2S1(=O)=O [tazobactam]
Ki [16]: 40 µM

Molecule: N#C[C@@H]1CC[C@@H]2CN1C(=O)N2OS(=O)(=O)[O-].[Na+] [Compound 3, (2S,5R)-1,6-Diazabicyclo[3.2.1]octane-2-carbonitrile-7-oxo-6-(sulfooxy)-monosodium Salt]
Kd [1]: 0.053 ± 0.007 µM
Ki [1]: 8 ± 0.8 µM
time for transfer from KPC-2 to TEM-1 [4]: ≤ 15 s
Kd [5]: 0.029 ± 0.004 µM
Ki [5]: 8 ± 1 µM
Kd [17]: 0.0019 ± 0.0002 µM
Ki [17]: 0.32 ± 0.03 µM
Kd [7]: 0.042 ± 0.006 µM
Ki [7]: 5 ± 0.5 µM

Molecule: C[C@@H](O)[C@H]1C(=O)N2C(C(=O)O)=C(S[C@@H]3CN[C@H](C(=O)N(C)C)C3)[C@H](C)[C@H]12 [meropenem]
MIC [8]: < 0.12 µg/mL
MIC [9, 22]: < 0.12 µg/mL
MIC [9, 23]: < 0.12 µg/mL
MIC [18]: ≥ 8 µg/mL
MIC [19]: < 0.12 µg/mL
MIC [15, 25]: 32 µg/mL (≈ 83.4 µM)
MIC [20]: ≥ 8 µg/mL
MIC [11, 24]: 256 µg/mL (≈ 668 µM)
MIC [21]: ≥ 8 µg/mL

Molecule: colistin
MIC ([2]; A. baumannii SL04 carrying blaOXA-23 and blaOXA-51): 2 µg/mL
MIC ([15]; A. baumannii NCTC 13301, 3 at a fixed 8 μg/mL, cefepime-2 at 1:1 ratio): 1 µg/mL
MIC ([11]; A. baumannii NCTC 13303, 3 at a fixed 8 μg/mL, cefepime-2 at 1:1 ratio): 0.5 µg/mL

From PMC6131718 (Journal of medicinal chemistry, 2018)
